Experimental data published in PubChem BioAssay (NCI).
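Protocol summary: plate cells (96-well), add compound at 5 concentrations, incubate 48 h, interpolate endpoints linearly. GI50 = concentration required for 50% inhibition of growth. TGI denotes the concentration required for complete inhibition of growth.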

What was measured:
Test in all cases: growth of human tumour cells (NCI), 48 h
[1] = tested on: UO-31 renal
[2] = tested on: BT-549 breast
[3] = tested on: SF-539 CNS
[4] = tested on: T-47D breast
[5] = tested on: COLO 205 colon
[6] = tested on: UACC-62 melanoma
[7] = tested on: OVCAR-4 ovarian
[8] = tested on: KM12 colon
[9] = tested on: NCI-H460 lung
[10] = tested on: DU-145 prostate
[11] = tested on: SF-268 CNS
[12] = tested on: ACHN renal
[13] = tested on: HCC-2998 colon
[14] = tested on: NCI-H522 lung
[15] = tested on: CCRF-CEM leukemia
[16] = tested on: MDA-MB-435
[17] = tested on: SF-295 CNS
[18] = tested on: EKVX NSCLC
[19] = tested on: OVCAR-8 ovarian
[20] = tested on: LOX IMVI melanoma
[21] = tested on: SN12C renal
[22] = tested on: UACC-257 melanoma
[23] = tested on: SK-MEL-28 melanoma
[24] = tested on: HCT-15 colon
[25] = tested on: HS 578T breast
[26] = tested on: HOP-92 NSCLC
[27] = tested on: SK-MEL-5 melanoma
[28] = tested on: HL-60(TB) leukemia
[29] = tested on: SW-620 colon
[30] = tested on: HT29 colon
[31] = tested on: MOLT-4 leukemia
[32] = tested on: RXF 393 renal
[33] = tested on: NCI/ADR-RES ovarian
[34] = tested on: SK-OV-3 ovarian
[35] = tested on: CAKI-1 renal
[36] = tested on: MDA-MB-231 breast
[37] = tested on: TK-10 renal
[38] = tested on: A549 NSCLC
[39] = tested on: RPMI-8226 leukemia
[40] = tested on: SK-MEL-2 melanoma
[41] = tested on: OVCAR-5 ovarian
[42] = tested on: HOP-62 NSCLC
[43] = tested on: M14 melanoma
[44] = tested on: NCI-H23 lung
[45] = tested on: PC-3 prostate
[46] = tested on: U251 CNS
[47] = tested on: HCT-116 colon
[48] = tested on: SNB-75 CNS
[49] = tested on: A498 renal
[50] = tested on: OVCAR-3 ovarian
[51] = tested on: IGROV1 ovarian
[52] = tested on: SR leukemia
[53] = tested on: K-562 leukemia
[54] = tested on: 786-0 renal
[55] = tested on: NCI-H226 lung
[56] = tested on: MALME-3M melanoma
[57] = tested on: SNB-19 CNS

CCCCN1CCN(c2ccc3nc(-c4ccc5nc(-c6ccc(C(F)(F)F)cc6)[nH]c5c4)[nH]c3c2)CC1
GI50 [1]: 1.75 µM
TGI [1]: 3.24 µM
GI50 [2]: 1.61 µM
TGI [2]: 3.1 µM
GI50 [3]: 1.59 µM
TGI [3]: 3.02 µM
GI50 [4]: 1.38 µM
TGI [4]: 3.19 µM
GI50 [5]: 1.45 µM
TGI [5]: 2.95 µM
GI50 [6]: 1.58 µM
TGI [6]: 3.11 µM
GI50 [7]: 0.859 µM
TGI [7]: 2.39 µM
GI50 [8]: 1.12 µM
TGI [8]: 2.68 µM
GI50 [9]: 0.64 µM
TGI [9]: 1.33 µM
GI50 [10]: 0.915 µM
TGI [10]: 2.36 µM
GI50 [11]: 1.74 µM
TGI [11]: 3.43 µM
GI50 [12]: 1.38 µM
TGI [12]: 2.68 µM
GI50 [13]: 1.84 µM
TGI [13]: 3.55 µM
GI50 [14]: 1.78 µM
TGI [14]: 3.49 µM
GI50 [15]: 0.289 µM
TGI [15]: 0.945 µM
GI50 [16]: 1.59 µM
TGI [16]: 3.01 µM
GI50 [17]: 1.48 µM
TGI [17]: 2.95 µM
GI50 [18]: 1.57 µM
TGI [18]: 3.07 µM
GI50 [19]: 1.24 µM
TGI [19]: 2.64 µM
GI50 [20]: 0.839 µM
TGI [20]: 2.27 µM
GI50 [21]: 1.61 µM
TGI [21]: 3.21 µM
GI50 [22]: 1.78 µM
TGI [22]: 3.41 µM
GI50 [23]: 1.69 µM
TGI [23]: 3.19 µM
GI50 [24]: 0.303 µM
TGI [24]: 1.1 µM
GI50 [25]: 1.82 µM
TGI [25]: 3.73 µM
GI50 [26]: 1.19 µM
TGI [26]: 2.64 µM
GI50 [27]: 1.6 µM
TGI [27]: 3.09 µM
GI50 [28]: 0.923 µM
TGI [28]: 2.63 µM
GI50 [29]: 0.297 µM
TGI [29]: 0.841 µM
GI50 [30]: 0.385 µM
TGI [30]: 1.45 µM
GI50 [31]: 1.07 µM
TGI [31]: 2.59 µM
GI50 [32]: 1.13 µM
TGI [32]: 2.49 µM
GI50 [33]: 3.24 µM
TGI [33]: > 75.9 µM
GI50 [34]: 1.91 µM
TGI [34]: 3.39 µM
GI50 [35]: 1.38 µM
TGI [35]: 2.69 µM
GI50 [36]: 1.47 µM
TGI [36]: 2.94 µM
GI50 [37]: 2.21 µM
TGI [37]: 3.68 µM
GI50 [38]: 0.926 µM
TGI [38]: 2.24 µM
GI50 [39]: 0.201 µM
TGI [39]: 0.475 µM
GI50 [40]: 1.76 µM
TGI [40]: 3.31 µM
GI50 [41]: 1.87 µM
TGI [41]: 3.32 µM
GI50 [42]: 1.54 µM
TGI [42]: 2.98 µM
GI50 [43]: 1.34 µM
TGI [43]: 2.8 µM
GI50 [44]: 1.68 µM
TGI [44]: 3.42 µM
GI50 [45]: 0.962 µM
TGI [45]: 2.31 µM
GI50 [46]: 1.59 µM
TGI [46]: 2.96 µM
GI50 [47]: 0.348 µM
TGI [47]: 1.27 µM
GI50 [48]: 1.11 µM
TGI [48]: 2.34 µM
GI50 [49]: 1.78 µM
TGI [49]: 3.45 µM
GI50 [50]: 0.614 µM
TGI [50]: 1.12 µM

C=C1C(=O)O[C@H]2[C@H]1CC/C(COC(=O)NCc1ccccc1OC)=C\CC[C@@]1(C)O[C@@H]21
GI50 [51]: 1.57 µM
TGI [51]: 4.36 µM
GI50 [1]: 1.68 µM
TGI [1]: 3.18 µM
GI50 [2]: 1.25 µM
TGI [2]: 2.55 µM
GI50 [3]: 1.53 µM
TGI [3]: 3.04 µM
GI50 [4]: 2.01 µM
TGI [4]: 5.7 µM
GI50 [5]: 1.75 µM
TGI [5]: 3.72 µM
GI50 [52]: 0.679 µM
TGI [52]: 5.19 µM
GI50 [7]: 1.78 µM
TGI [7]: 4.92 µM
GI50 [8]: 3.53 µM
TGI [8]: 13.6 µM
GI50 [9]: 3.73 µM
TGI [9]: 14.6 µM
GI50 [53]: 0.821 µM
TGI [53]: 6.07 µM
GI50 [10]: 0.698 µM
TGI [10]: 1.98 µM
GI50 [11]: 2.2 µM
TGI [11]: 6.74 µM
GI50 [12]: 1.27 µM
TGI [12]: 2.85 µM
GI50 [13]: 1.82 µM
TGI [13]: 3.52 µM
GI50 [14]: 0.351 µM
TGI [14]: 1.92 µM
GI50 [54]: 1.16 µM
TGI [54]: 2.74 µM
GI50 [55]: 2.11 µM
TGI [55]: 4.96 µM
GI50 [15]: 0.482 µM
TGI [15]: 4.7 µM
GI50 [16]: 1.7 µM
TGI [16]: 4.86 µM
GI50 [17]: 5.02 µM
TGI [17]: 18.8 µM
GI50 [18]: 1.98 µM
TGI [18]: 6.39 µM
GI50 [19]: 2.45 µM
TGI [19]: 8.38 µM
GI50 [20]: 1.43 µM
TGI [20]: 2.96 µM
GI50 [22]: 1.48 µM
TGI [22]: 3.51 µM
GI50 [23]: 1.52 µM
TGI [23]: 3.61 µM
GI50 [24]: 1.04 µM
TGI [24]: 2.47 µM
GI50 [56]: 1.89 µM
TGI [56]: 3.98 µM
GI50 [25]: 3.4 µM
TGI [25]: 19 µM
GI50 [26]: 1.49 µM
TGI [26]: 3.72 µM
GI50 [57]: 1.57 µM
TGI [57]: 3.47 µM
GI50 [27]: 2.86 µM
TGI [27]: 8.03 µM
GI50 [28]: 1.61 µM
TGI [28]: 5.77 µM
GI50 [29]: 0.768 µM
TGI [29]: 3.16 µM
GI50 [30]: 1.22 µM
TGI [30]: 3.43 µM
GI50 [31]: 2.53 µM
TGI [31]: 6.13 µM
GI50 [32]: 1.04 µM
TGI [32]: 2.57 µM
GI50 [33]: 2.26 µM
TGI [33]: 6.12 µM
GI50 [34]: 13.5 µM
TGI [34]: 26.8 µM
GI50 [35]: 1.38 µM
TGI [35]: 2.77 µM
GI50 [36]: 1.47 µM
TGI [36]: 3.49 µM
GI50 [37]: 1.79 µM
TGI [37]: 3.48 µM
GI50 [38]: 3.07 µM
TGI [38]: 11.8 µM
GI50 [39]: 1.77 µM
TGI [39]: 6.24 µM
GI50 [40]: 1.71 µM
TGI [40]: 3.89 µM
GI50 [41]: 2.29 µM
TGI [41]: 5.44 µM
GI50 [42]: 3.69 µM
TGI [42]: 14.4 µM
GI50 [43]: 1.1 µM
TGI [43]: 2.56 µM
GI50 [44]: 1.74 µM
TGI [44]: 4.11 µM
GI50 [45]: 3.13 µM
TGI [45]: 10.6 µM
GI50 [46]: 2.2 µM
TGI [46]: 6.85 µM
GI50 [47]: 0.548 µM
TGI [47]: 1.86 µM
GI50 [48]: 2.44 µM
TGI [48]: 13.2 µM
GI50 [49]: 3.23 µM
TGI [49]: 8.53 µM
GI50 [50]: 0.872 µM
TGI [50]: 2.42 µM
